Like-named read-outs stand apart in the source and are kept apart here. Starred links: 1 amine or outer side, 2 acyl side, 3 side chain; linkers in the order of their positions; H or OH if unused. Positions of bridges follow the written chain, without caps; N, C: chain ends. Non-standard residues stand in square brackets, D forms with d. Residues, ends and D or L forms follow the SMILES beside them. *: point of attachment. Bip(4'-NHCO-C6H4-3-CH2COOH) = N[C@@H](Cc1ccc(-c2ccc(NC(=O)c3cccc(CC(=O)O)c3)cc2)cc1)C(=O)O; Bip(4'-NHCO-C6H4-4-CH2COOH) = N[C@@H](Cc1ccc(-c2ccc(NC(=O)c3ccc(CC(=O)O)cc3)cc2)cc1)C(=O)O; Bip(4'-(3-HOOC-benzamido)) = N[C@@H](Cc1ccc(-c2ccc(NC(=O)c3cccc(C(=O)O)c3)cc2)cc1)C(=O)O; Bip(4'-NH) = O=C([C@H](Cc1ccc(-c2ccc(N[*:3])cc2)cc1)N[*:1])[*:2]; Bip(4'-CONHMe) = CNC(=O)c1ccc(-c2ccc(C[C@H](N)C(=O)O)cc2)cc1; Bip(4'-COOH) = N[C@@H](Cc1ccc(-c2ccc(C(=O)O)cc2)cc1)C(=O)O; Bip(4'-NHAc) = CC(=O)Nc1ccc(-c2ccc(C[C@H](N)C(=O)O)cc2)cc1; Indole3carbonyl(1-CH2COOH) = O=C(O)Cn1cc(C(=O)*)c2ccccc21; dArg(ω-Bn) = N=C(NCCC[C@@H](N)C(=O)O)NCc1ccccc1; Ala(morpholin-4-yl) = N[C@@H](CN1CCOCC1)C(=O)O; Benzoyl(3-OCH2COOH) = O=C(O)COc1cccc(C(=O)*)c1; Phe(3-CONH2) = NC(=O)c1cccc(C[C@H](N)C(=O)O)c1; Bip = N[C@@H](Cc1ccc(-c2ccccc2)cc1)C(=O)O; Ala(2-furyl) = N[C@@H](Cc1ccco1)C(=O)O; Tiq1c(1S) = O=C(O)[C@H]1NCCc2ccccc21; Val(3-OH) = CC(C)(O)[C@H](N)C(=O)O; 2Pal = N[C@@H](Cc1ccccn1)C(=O)O; Tic = O=C(O)[C@@H]1Cc2ccccc2CN1; Cha = N[C@@H](CC1CCCCC1)C(=O)O; Chg = N[C@H](C(=O)O)C1CCCCC1; Sar = CNCC(=O)O
Target: TNFα (Homo sapiens, UniProt P01375)
Assay: TNF-Induced HEK-Blue Assay
Assay type: cell-based
[1] = HEK-Blue-CD40L cells, NF-kB-driven secreted alkaline phosphatase reporter, TNFα 0.5 ng/ml, 18 h, read-out: TNF induced HEK-Blue assay IC50 value

Sequence of TNFα (P01375 77-233 limits assumed): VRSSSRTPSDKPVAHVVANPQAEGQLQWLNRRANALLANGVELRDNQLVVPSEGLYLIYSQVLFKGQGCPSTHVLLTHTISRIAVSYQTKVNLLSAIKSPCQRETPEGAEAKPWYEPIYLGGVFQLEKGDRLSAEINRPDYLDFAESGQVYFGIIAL

Row | SMILES | IC50 [1] [nM] | IC50 [nM]
1 | CC(C)C[C@@H]1NC(=O)[C@H](Cc2c[nH]cn2)NC(=O)[C@H](C2CCCCC2)NC(=O)[C@@H]2CCCN2C(=O)[C@H](C(C)C)NC(=O)[C@@H](CCCNC(=N)N)NC(=O)[C@H](CC(=O)O)NC(=O)[C@H](Cc2cnc[nH]2)NC(=O)CN(C)C(=O)[C@H](Cc2ccc(-c3ccc(NC(=O)c4cccc(C(=O)O)c4)cc3)cc2)NC(=O)[C@H](Cc2ccc(-c3ccccc3)cc2)NC(=O)[C@H](CC2CCCCC2)NC(=O)CSC[C@@H](C(=O)NCC(N)=O)NC1=O [Example 514] ({CH2CO}-[Cha][Bip][Bip(4'-(3-HOOC-benzamido))][Sar]HD[dR]VP[Chg]HLCG-NH2; thioether N-13) | < 50 | 
2 | CC[C@H](C)[C@@H]1NC(=O)[C@@H](CCCNC(=N)N)NC(=O)[C@H](CC(=O)O)NC(=O)[C@H](Cc2cnc[nH]2)NC(=O)CN(C)C(=O)[C@H](Cc2ccc(-c3ccc(NC(=O)c4cccc(OCC(=O)O)c4)cc3)cc2)NC(=O)[C@H](Cc2ccc(-c3ccccc3)cc2)NC(=O)[C@H](CC2CCCCC2)NC(=O)CSC[C@@H](C(=O)NCC(N)=O)NC(=O)[C@H](CC(C)C)NC(=O)[C@H](Cc2c[nH]cn2)NC(=O)[C@H](C(C)C)NC(=O)[C@@H]2Cc3ccccc3CN2C1=O [Example 515] ({CH2CO}-[Cha][Bip][Bip(4'-NH)](Benzoyl(3-OCH2COOH))[Sar]HD[dR]I[Tic]VHLCG-NH2; thioether N-13) | < 50 | 
3 | CC[C@H](C)[C@@H]1NC(=O)[C@@H](CCCNC(=N)N)NC(=O)[C@H](CC(=O)O)NC(=O)[C@H](Cc2cnc[nH]2)NC(=O)CN(C)C(=O)[C@H](Cc2ccc(-c3ccc(NC(=O)c4cccc(OCC(=O)O)c4)cc3)cc2)NC(=O)[C@H](Cc2ccc(-c3ccccc3)cc2)NC(=O)[C@H](CC2CCCCC2)NC(=O)CSC[C@@H](C(=O)NCC(N)=O)NC(=O)[C@H](CC(C)C)NC(=O)[C@H](Cc2c[nH]cn2)NC(=O)[C@H](C(C)C)NC(=O)[C@@H]2c3ccccc3CCN2C1=O [Example 516] ({CH2CO}-[Cha][Bip][Bip(4'-NH)](Benzoyl(3-OCH2COOH))[Sar]HD[dR]I[Tiq1c(1S)]VHLCG-NH2; thioether N-13) | < 50 | 
4 | CC(=O)Nc1ccc(-c2ccc(C[C@@H]3NC(=O)[C@H](Cc4ccc(-c5ccccc5)cc4)NC(=O)[C@H](C(C)(C)O)NC(=O)CSC[C@@H](C(=O)NCC(N)=O)NC(=O)[C@H](CC(C)C)NC(=O)[C@H](Cc4cnc[nH]4)NC(=O)[C@H](C(C)C)NC(=O)[C@@H]4CCCN4C(=O)[C@H](C(C)C)NC(=O)[C@@H](CCCNC(=N)N)NC(=O)[C@H](CC(=O)O)NC(=O)[C@H](Cc4ccccn4)NC(=O)CN(C)C3=O)cc2)cc1 [Example 518] ({CH2CO}-[Val(3-OH)][Bip][Bip(4'-NHAc)][Sar][2Pal]D[dR]VPVHLCG-NH2; thioether N-13) | 50 to 200 | 
5 | CC(=O)Nc1ccc(-c2ccc(C[C@@H]3NC(=O)[C@H](Cc4ccc(-c5ccccc5)cc4)NC(=O)[C@H](CN4CCOCC4)NC(=O)CSC[C@@H](C(=O)NCC(N)=O)NC(=O)[C@H](CC(C)C)NC(=O)[C@H](Cc4cnc[nH]4)NC(=O)[C@H](C(C)C)NC(=O)[C@@H]4CCCN4C(=O)[C@H](C(C)C)NC(=O)[C@@H](CCCNC(=N)N)NC(=O)[C@H](CC(=O)O)NC(=O)[C@H](Cc4ccco4)NC(=O)CN(C)C3=O)cc2)cc1 [Example 519] ({CH2CO}-[Ala(morpholin-4-yl)][Bip][Bip(4'-NHAc)][Sar][Ala(2-furyl)]D[dR]VPVHLCG-NH2; thioether N-13) | 50 to 200 | 
6 | CC(=O)Nc1ccc(-c2ccc(C[C@@H]3NC(=O)[C@H](Cc4ccc(-c5ccc(C(=O)O)cc5)cc4)NC(=O)[C@H](CN4CCOCC4)NC(=O)CSC[C@@H](C(=O)NCC(N)=O)NC(=O)[C@H](CC(C)C)NC(=O)[C@H](Cc4cnc[nH]4)NC(=O)[C@H](C(C)C)NC(=O)[C@@H]4CCCN4C(=O)[C@H](C(C)C)NC(=O)[C@@H](CCCNC(=N)N)NC(=O)[C@H](CC(=O)O)NC(=O)[C@H](Cc4ccco4)NC(=O)CN(C)C3=O)cc2)cc1 [Example 520] ({CH2CO}-[Ala(morpholin-4-yl)][Bip(4'-COOH)][Bip(4'-NHAc)][Sar][Ala(2-furyl)]D[dR]VPVHLCG-NH2; thioether N-13) | < 50 | 
7 | CC[C@H](C)[C@@H]1NC(=O)[C@@H](CCCNC(=N)N)NC(=O)[C@H](CC(=O)O)NC(=O)[C@H](Cc2ccccn2)NC(=O)CN(C)C(=O)[C@H](Cc2ccc(-c3ccc(NC(C)=O)cc3)cc2)NC(=O)[C@H](Cc2ccc(-c3ccccc3)cc2)NC(=O)[C@H](CN2CCOCC2)NC(=O)CSC[C@@H](C(=O)NCC(N)=O)NC(=O)[C@H](CC(C)C)NC(=O)[C@H](Cc2cnc[nH]2)NC(=O)[C@H](C(C)C)NC(=O)[C@@H]2CCCN2C1=O [Example 522] ({CH2CO}-[Ala(morpholin-4-yl)][Bip][Bip(4'-NHAc)][Sar][2Pal]D[dR]IPVHLCG-NH2; thioether N-13) | < 50 | 
8 | CC(=O)Nc1ccc(-c2ccc(C[C@@H]3NC(=O)[C@H](Cc4ccc(-c5ccccc5)cc4)NC(=O)[C@H](CN4CCOCC4)NC(=O)CSC[C@@H](C(=O)NCC(N)=O)NC(=O)[C@H](CC(C)C)NC(=O)[C@H](Cc4c[nH]cn4)NC(=O)[C@H](C4CCCCC4)NC(=O)[C@@H]4CCCN4C(=O)[C@H](C(C)C)NC(=O)[C@@H](CCCNC(=N)N)NC(=O)[C@H](CC(=O)O)NC(=O)[C@H](Cc4ccco4)NC(=O)CN(C)C3=O)cc2)cc1 [Example 524] ({CH2CO}-[Ala(morpholin-4-yl)][Bip][Bip(4'-NHAc)][Sar][Ala(2-furyl)]D[dR]VP[Chg]HLCG-NH2; thioether N-13) | 50 to 200 | 
9 | CC(C)C[C@@H]1NC(=O)[C@H](Cc2cnc[nH]2)NC(=O)[C@H](C(C)C)NC(=O)[C@@H]2CCCN2C(=O)[C@H](C(C)C)NC(=O)[C@@H](CCCNC(=N)N)NC(=O)[C@H](CC(=O)O)NC(=O)[C@H](Cc2cnc[nH]2)NC(=O)CN(C)C(=O)[C@H](Cc2ccc(-c3ccc(NC(=O)c4ccc(CC(=O)O)cc4)cc3)cc2)NC(=O)[C@H](Cc2ccc(-c3ccccc3)cc2)NC(=O)[C@H](CC2CCCCC2)NC(=O)CSC[C@@H](C(=O)NCC(N)=O)NC1=O [Example 526] ({CH2CO}-[Cha][Bip][Bip(4'-NHCO-C6H4-4-CH2COOH)][Sar]HD[dR]VPVHLCG-NH2; thioether N-13) | < 50 | 
10 | CC[C@H](C)[C@@H]1NC(=O)[C@@H](CCCNC(=N)N)NC(=O)[C@H](CC(=O)O)NC(=O)[C@H](Cc2cnc[nH]2)NC(=O)CN(C)C(=O)[C@H](Cc2ccc(-c3ccc(NC(=O)c4cccc(CC(=O)O)c4)cc3)cc2)NC(=O)[C@H](Cc2ccc(-c3ccc(C(=O)NC)cc3)cc2)NC(=O)[C@H](CC2CCCCC2)NC(=O)CSC[C@@H](C(=O)NCC(N)=O)NC(=O)[C@H](CC(C)C)NC(=O)[C@H](Cc2cnc[nH]2)NC(=O)[C@H](C(C)C)NC(=O)[C@@H]2CCCN2C1=O [Example 527] ({CH2CO}-[Cha][Bip(4'-CONHMe)][Bip(4'-NHCO-C6H4-3-CH2COOH)][Sar]HD[dR]IPVHLCG-NH2; thioether N-13) | < 50 | 
11 | CC[C@H](C)[C@@H]1NC(=O)[C@@H](CCCNC(=N)N)NC(=O)[C@H](CC(=O)O)NC(=O)[C@H](Cc2cnc[nH]2)NC(=O)CN(C)C(=O)[C@H](Cc2ccc(-c3ccc(NC(=O)c4ccc(CC(=O)O)cc4)cc3)cc2)NC(=O)[C@H](Cc2ccc(-c3ccc(C(=O)NC)cc3)cc2)NC(=O)[C@H](CC2CCCCC2)NC(=O)CSC[C@@H](C(=O)NCC(N)=O)NC(=O)[C@H](CC(C)C)NC(=O)[C@H](Cc2cnc[nH]2)NC(=O)[C@H](C(C)C)NC(=O)[C@@H]2CCCN2C1=O [Example 528] ({CH2CO}-[Cha][Bip(4'-CONHMe)][Bip(4'-NHCO-C6H4-4-CH2COOH)][Sar]HD[dR]IPVHLCG-NH2; thioether N-13) | < 50 | 
12 | CC[C@H](C)[C@@H]1NC(=O)[C@@H](CCCNC(=N)N)NC(=O)[C@H](CC(=O)O)NC(=O)[C@H](Cc2cnc[nH]2)NC(=O)CN(C)C(=O)[C@H](Cc2ccc(-c3ccc(NC(=O)c4cccc(C(=O)O)c4)cc3)cc2)NC(=O)[C@H](Cc2ccc(-c3ccc(C(=O)O)cc3)cc2)NC(=O)[C@H](CC2CCCCC2)NC(=O)CSC[C@@H](C(=O)NCC(N)=O)NC(=O)[C@H](CC(C)C)NC(=O)[C@H](Cc2cnc[nH]2)NC(=O)[C@H](C(C)C)NC(=O)[C@@H]2CCCN2C1=O [Example 530] ({CH2CO}-[Cha][Bip(4'-COOH)][Bip(4'-(3-HOOC-benzamido))][Sar]HD[dR]IPVHLCG-NH2; thioether N-13) | < 50 | 
13 | CC(C)C[C@@H]1NC(=O)[C@H](Cc2ccc(O)cc2)NC(=O)[C@H](C(C)C)NC(=O)[C@@H]2CCCN2C(=O)[C@H](C(C)C)NC(=O)[C@@H](CCCNC(=N)NCc2ccccc2)NC(=O)[C@H](CC(=O)O)NC(=O)[C@@H]2CCCN2C(=O)CN(C)C(=O)[C@H](Cc2ccc(-c3ccc(NC(=O)c4cn(CC(=O)O)c5ccccc45)cc3)cc2)NC(=O)[C@H](Cc2ccc(-c3ccccc3)cc2)NC(=O)[C@H](CN2CCOCC2)NC(=O)CSC[C@@H](C(=O)NCC(N)=O)NC1=O [Example 531] ({CH2CO}-[Ala(morpholin-4-yl)][Bip][Bip(4'-NH)](Indole3carbonyl(1-CH2COOH))[Sar]PD[dArg(ω-Bn)]VPVYLCG-NH2; thioether N-13) |  | < 50
14 | CC[C@H](C)[C@@H]1NC(=O)[C@@H](CCCNC(=N)NCc2ccccc2)NC(=O)[C@H](CC(=O)O)NC(=O)[C@@H]2CCCN2C(=O)CN(C)C(=O)[C@H](Cc2ccc(-c3ccc(NC(=O)c4cn(CC(=O)O)c5ccccc45)cc3)cc2)NC(=O)[C@H](Cc2ccc(-c3ccccc3)cc2)NC(=O)[C@H](CN2CCOCC2)NC(=O)CSC[C@@H](C(=O)NCC(N)=O)NC(=O)[C@H](CC(C)C)NC(=O)[C@H](Cc2cnc[nH]2)NC(=O)[C@H](C(C)C)NC(=O)[C@@H]2CCCN2C1=O [Example 533] ({CH2CO}-[Ala(morpholin-4-yl)][Bip][Bip(4'-NH)](Indole3carbonyl(1-CH2COOH))[Sar]PD[dArg(ω-Bn)]IPVHLCG-NH2; thioether N-13) |  | < 50
15 | CC(C)C[C@@H]1NC(=O)[C@H](Cc2cccc(C(N)=O)c2)NC(=O)[C@H](C(C)C)NC(=O)[C@@H]2CCCN2C(=O)[C@H](C(C)C)NC(=O)[C@@H](CCCNC(=N)NCc2ccccc2)NC(=O)[C@H](CC(=O)O)NC(=O)[C@@H]2CCCN2C(=O)CN(C)C(=O)[C@H](Cc2ccc(-c3ccc(NC(=O)c4cn(CC(=O)O)c5ccccc45)cc3)cc2)NC(=O)[C@H](Cc2ccc(-c3ccccc3)cc2)NC(=O)[C@H](CN2CCOCC2)NC(=O)CSC[C@@H](C(=O)NCC(N)=O)NC1=O [Example 535] ({CH2CO}-[Ala(morpholin-4-yl)][Bip][Bip(4'-NH)](Indole3carbonyl(1-CH2COOH))[Sar]PD[dArg(ω-Bn)]VPV[Phe(3-CONH2)]LCG-NH2; thioether N-13) |  | < 50

Reference: patent publication US20250145665A1, “MACROCYCLIC PEPTIDES USEFUL AS MODULATORS OF TNF ALPHA” (Bristol-Myers Squibb Company, priority 2023, published 2025)
